Test results from US20210024498A1, “TETRAHYDROPYRROLE COMPOUND, PREPARATION METHOD THEREFOR, PHARMACEUTICAL COMPOSITION CONTAINING SAME, AND USE THEREOF” (MEDICONNS (SHANGHAI) BIOPHARMACEUTICAL CO., LTD, priority 2017, published 2021).
Entries after “also recorded” stand apart in the source; their conditions may differ.

Legend:
DAT = DAT (Homo sapiens, UniProt Q01959); experiment: DAT transporter assay (neurotransmitter transporter absorption assay); type: cell-based
Experimental: Bioactivity Test • I. D2 receptor affinity assay: The affinity of the compound to D2 receptor was determined by radioligand competition assay, and the cloned D2 receptor was expressed in HEK293 cell line. • II. D2 receptor function assay: The ability of the compound to antagonize the D2 receptor was determined using a calcium mobilization assay (FLIPR). • III. DAT receptor function assay: The ability of the compound to inhibit DAT was determined by neurotransmitter transporter absorption assay.
• HBSS1×, REPES 20 mM, BSA 0.1%.
• Lyophilized fluorescent dye 1 vial, Assay buffer 10 mL.
• BTCP—hydrochloride (Sigma)
• i) The medium was preheated in 37° C. water bath in advance for more than 30 minutes for later use. • j) The preheated medium was taken out, disinfected with 75% alcohol, and put into a biosafety cabinet. • k) The cultured cells were taken out from the […], and the medium was removed by a vacuum pump. 1× DPBS was added, incubated for a moment, and then removed by a vacuum pump. Appropriate amount of 0.05% trypsin-EDTA was added for cell digestion. The digestion was terminated by 10% FBS medium, and the cells were pipetted and dispersed. • l) The dispersed cells were transferred into a 50 mL centrifuge tube with a pipette.
• a) The reference compound was diluted in a ratio of 1:3 to 10 concentration gradients with the detection buffer containing 0.1% BSA, with the highest concentration being 2 μM. The compound to be tested was diluted to 20 uM with the detection buffer containing 0.1% BSA. • b) A centrifuge (750 rpm, 15 s) was used to spin off the culture solution in the cell culture plate, and the compound solution in step 1 was transferred to the cell culture plate (25 uL/well). • HC (High control): 25 μL of 0.1% BSA detection buffer containing 0.2% DMSO. • LC (Low control): 25 μL of solution containing 2 μM positive antagonist. • c) After centrifugation at 300 rpm for 15 seconds, the plate was incubated at 37° C. for 30 minutes. After the incubation with the compound was completed, a dye solution (25 μL/well) was added and incubated at 37° C. for 30 minutes.
Inhibitor % activity=100−(signal value per well−average value for LC well)/(average value for H well−average value for LC well)*100%.

[1] = tested on: PCP-induced high locomotor activity in mice; experiment: Phencyclidine (PCP) induced high locomotor activity (LMA) in mice; type: in vivo; set-up: Distance resulting from the activity, First 30 min / Distance resulting from the activity, Last 30 min: unit not given here; details: for Effect on PCP-induced high locomotor activity compared with olanzapine (in words) / Inhibition of PCP-induced high locomotor activity (in words): 5, 10, 20 mg/kg; for Effect on PCP-induced high locomotor activity compared with olanzapine (in words): p.o. vs olanzapine 5 mg/kg p.o.; for Inhibition of PCP-induced high locomotor activity (in words): p.o., P<0.05-0.01; for Distance resulting from the activity, First 30 min / Distance resulting from the activity, Last 30 min: PCP 5.0 mg/kg s.c., male ICR mice
Source text: • 1. The effect of the compound on phencyclidine (PCP) induced high locomotor activity (LMA) in mice was detected.
The test compound MDC was milky white powder and stored in a shade and cool place (freshly formulated with 1% DMSO before use). […] Phencyclidine (PCP), purchased from Sigma Aldrich, was a grayish white powder (freshly formulated with normal saline before use). 1% DMSO was formulated by diluting pure DMSO (purity>99.5, purchased from Sigma-Aldrich) with normal saline.
Male ICR mice having weight 22±2 g were kept at 8 mice/cage with 12/12 hours light/dark cycle, temperature 23° C.±1° C., humidity 50% to 60%, free to eat and drink water.
The administration volume was 0.1 ml/10 g body weight; PCP was formulated with normal saline at a dose of 5 mg/kg.
The test compound MDC and olanzapine were administered by gavage and PCP was administered by subcutaneous injection.
After one week of acclimation, mice were randomly divided into 6 groups according to their body weight: negative control group, model group, positive control group, and low dose group, medium dose group and high dose group for the test compound. 8-10 animals/group.
Group 1: Negative control group: Normal saline (s.c.)+1% DMSO (10.0 ml/kg, p.o.);
Group 2: Model group: PCP (5.0 mg/kg, s.c.)+1% DMSO (10.0 ml/kg, p.o.);
Group 4: MDC low dose group: PCP (5.0 mg/kg, s.c.)+MDC (5 mg/kg, p.o.);
Group 5: MDC medium dose group: PCP (5.0 mg/kg, s.c.)+MDC (10 mg/kg, p.o.);
Group 6: MDC high dose group: PCP (5.0 mg/kg, s.c.)+MDC (20 mg/kg, p.o.).
After oral administration, the animals were immediately placed in a locomotor activity box and recorded by Shanghai Jiliang ( ? ) animal video analysis system for 1 hour.
After the experiment, the activity of the animals within 1 hour was analyzed using the trajectory analysis software of Shanghai Jiliang animal video analysis system to obtain the total distance resulting from the activity.

[2] = 5 mg/kg p.o. (low dose group; olanzapine positive control)
[3] = 10 mg/kg p.o. (medium dose group)
[4] = 20 mg/kg p.o. (high dose group)

Sequence of DAT (Q01959 whole entry, species assumed): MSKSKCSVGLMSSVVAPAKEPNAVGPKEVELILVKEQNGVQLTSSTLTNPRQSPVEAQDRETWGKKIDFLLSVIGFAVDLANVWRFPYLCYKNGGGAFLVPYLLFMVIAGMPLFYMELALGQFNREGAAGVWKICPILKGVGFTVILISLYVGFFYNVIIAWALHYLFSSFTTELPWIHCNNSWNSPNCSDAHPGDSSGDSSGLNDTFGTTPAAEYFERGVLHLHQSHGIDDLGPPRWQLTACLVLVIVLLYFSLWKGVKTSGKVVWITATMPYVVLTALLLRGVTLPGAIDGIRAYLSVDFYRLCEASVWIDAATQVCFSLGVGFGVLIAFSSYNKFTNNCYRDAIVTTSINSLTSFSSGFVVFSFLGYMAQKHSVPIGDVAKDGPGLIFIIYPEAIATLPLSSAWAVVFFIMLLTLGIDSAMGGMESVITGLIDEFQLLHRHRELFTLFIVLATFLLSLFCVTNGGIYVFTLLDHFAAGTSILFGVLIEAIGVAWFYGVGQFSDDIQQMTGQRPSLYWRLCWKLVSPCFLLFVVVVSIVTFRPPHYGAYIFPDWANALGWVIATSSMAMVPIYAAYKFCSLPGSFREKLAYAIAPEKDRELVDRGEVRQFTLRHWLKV

Row | IC50 (DAT) | SMILES | Effect on PCP-induced high locomotor activity compared with olanzapine (in words) [1] | Inhibition of PCP-induced high locomotor activity (in words) [1] | Distance resulting from the activity, First 30 min [1, 2] | Distance resulting from the activity, Last 30 min [1, 2] | Distance resulting from the activity, First 30 min [1, 3] | Distance resulting from the activity, Last 30 min [1, 3] | Distance resulting from the activity, First 30 min [1, 4] | Distance resulting from the activity, Last 30 min [1, 4]
1 | 936 nM | O=S(=O)(Nc1cccc(C2CCN(Cc3c[nH]c4ccccc34)C2)c1)c1cccs1 (stereo not drawn) [MDC-161502-008, 1-(indole-3-methyl)-3-[3-(2-thiophenesulfonamido)phenyl]pyrrolidine] | equivalent to the effect of the positive drug olanzapine | inhibited PCP-induced high locomotor activity in mice | 299745 | – | 246900 | 230876 | 220968 | 189765
2 | 762 nM | O=S(=O)(CC(F)(F)F)Nc1cccc(C2CCN(Cc3c[nH]c4ccccc34)C2)c1 (stereo not drawn) [MDC-161502-006, 1-(indole-3-methyl)-3-(3-trifluoroethanesulfonamidophenyl)pyrrolidine] | – | – | 327586 | 302499 | 286745 | 267834 | 248576 | 230867

Row | SMILES | IC50 (DAT) | Effect on PCP-induced high locomotor activity compared with olanzapine (in words) [1] | Inhibition of PCP-induced high locomotor activity (in words) [1] | Distance resulting from the activity, First 30 min [1, 2] | Distance resulting from the activity, Last 30 min [1, 2] | Distance resulting from the activity, First 30 min [1, 3] | Distance resulting from the activity, Last 30 min [1, 3] | Distance resulting from the activity, First 30 min [1, 4] | Distance resulting from the activity, Last 30 min [1, 4]
3 | Oc1cccc(C2CCN(Cc3c[nH]c4ccccc34)C2)c1 (racemic) [MDC-161502-002, 1-(indole-3-methyl)-3-(3-hydroxyphenyl)pyrrolidine] | 181 nM | equivalent to the effect of the positive drug olanzapine; also recorded: significant advantages over olanzapine | inhibited PCP-induced high locomotor activity in mice | 241185 | 265712 | 211543 | 206789 | 158231 | 110918
